From patent US11491168B2, “Combination of Bcl-2/Bcl-xL inhibitors and chemotherapeutic agent and use thereof” (ASCENTAGE PHARMA (SUZHOU) CO., LTD., priority 2019, dated 2022)

Legend:
[1] = system: AGS gastric cancer cell line; test: CCK-8 cell viability, AGS; format: cell-based; settings: within 72 hours
Text: (§1) Thus, the sensitivity of gastric cancer cells to Compound 31 is closely related to the expression of Bcl-2, Bcl-xL and Bax.

[2] = system: small cell lung cancer cell line NCI-H146, NCI-H69 and NCI-H446; test: Cell Titer-Glo luminescent cell viability assay (CTG); format: cell-based, human; settings: small cell lung cancer cells
Experimental: Cells in the logarithmic growth phase were collected for Cell Titer-Glo® (CTG) luminescence cell viability assay. 10 μL of the diluted drug solution was added into a 96-well plate while 10 μL of the medium was added into the 96-well control plate. For the study of the combination, 5 μL of the indicated test reagent was added to each well. At the end of the study, the 96-well plates were equilibrated to room temperature, and then 30 μL of CTG reagent (protected from light) was added to each well to induce cell lysis. The luminescent signal was then detected using a Biotek Synergy H1 plate reader. Percent cell viability (%) was calculated using the mean luminescence value (LN) of the replicate wells (blank) of the control group, according to the following formula: percent cell viability (%)=(fluorescence signal value of experimental cells−fluorescence signal value of negative control cell)/(fluorescence signal value of control cells−fluorescence signal value of negative control cells)×100%.
Cell viability curve was plotted using Graphpad Prism 6.0 software (Golden software, Golden, Colo., USA). For the study of the drug combination, the Combination Index (CI) was calculated using CalcuSyn software (BIOSOFT, UK) to further analyze the combined effects of the indicated drugs (Chou, Cancer Research 70, 440-446). […]

[3] = system: NCI-N87 cells; test: CCK-8 anti-proliferation, NCI-N87, Compound 31 with docetaxel; format: cell-based; settings: Homo sapiens; NCI-N87, 72 hours, Compound 31 alone
Experimental: Briefly, NCI-N87 cells were seeded in 96-well plates and treated with different Compound 31 at different concentrations for 72 hours. […] Each concentration was prepared in triplicates. At the end of treatment, CCK-8 agents (10 μL/well) were added to the 96-well plate, and incubated with the cells for 2 hours. The OD450 value was measured using a microplate reader.

[4] = system: AGS and NCI-N87 gastric cancer cell lines; test: cell cycle assay; format: cell-based
[5] = system: NCI-N87 cells; test: AnnexinV/PI staining apoptosis, NCI-N87; format: cell-based; settings: NCI-N87, 48 hours; Compound 31 0.3 μM, 5-FU 3 μM
Experimental: (§2) The inventors chose to combine Compound 31 with one of the most common chemotherapeutic drugs in clinic, 5-fluorouracil (5-FU). In order to investigate the effect and the potential mechanisms of Compound 31 and 5-FU on the growth of gastric cancer cells, the inventors used the AnnexinV/PI staining to detect the apoptosis of two gastric cancer cells, AGS and NCI-N87, 48 hours after the treatment with Compound 31 (0.3 μM), 5-FU (3 μM), and the combination at specified concentrations. […] In NCI-N87 cells, the combination group also achieved a higher apoptosis rate than the mono therapy groups, Compound 31 or 5-FU as a single agent leading to apoptosis rates of 24% or 18% while the combination group reaching an apoptosis rate of 46% (FIG. 29(a)).

[6] = system: NCI-N87 gastric cancer cell line; test: CCK-8 cell viability, NCI-N87; format: cell-based; settings: Homo sapiens; NCI-N87, within 72 hours
Text: as §1

[7] = system: AGS cells; test: AnnexinV/PI staining apoptosis, AGS; format: cell-based; settings: 48 hours, Compound 31 0.3 μM, 5-FU 3 μM
Experimental: as §2

IC50 [1]: 1150 ± 560 nM
IC50 [6]: 901 ± 230 nM
SMILES: Cc1c(S(C)(=O)=O)c(-c2cc(F)cc(N3CCN(c4ccc(NS(=O)(=O)c5ccc(N[C@H](CCN6CCC(C(=O)O)CC6)CSc6ccccc6)c(S(=O)(=O)C(F)(F)F)c5)cc4)CC3)c2)c(-c2ccc(Cl)cc2)n1C(C)C [Compound 31, (R)-1-(3-(4-(N-(4-(4-(3-(2-(4-chlorophenyl)-1-isopropyl-5-methyl-4-(methylsulfonyl)-1H-pyrrol-3-yl)-5-fluorophenyl)piperazin-1-yl)phenyl)sulfamoyl)-2-(trifluoromethylsulfonyl)phenylamino)-4-(phenylthio)butyl)piperidine-4-carboxylic acid]
inhibition of proliferation as a single agent [2]: can inhibit proliferation of small cell lung cancer cells
IC50 [3]: 405 nM
effect on cell cycle [4]: no significant effect on cell cycle
apoptosis rate [5]: 24%
apoptosis rate [7]: approximately 22%
